The target in one experiment is GST-Bcl-xL (Homo sapiens, UniProt Q07817). To be noted: read-out: TR-FRET binding Bcl-xL Ki.
Experiment [1] concerns mouse FL5.12 cells transfected with Bcl-XL. The experiment is described as follows: FL5.12 cellular assay (cell viability, CellTiter-Glo).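 Also: each EC50 determination derived from duplicate measurements.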 It is filed as cell-based. To be noted: FL5.12 cells transfected with Bcl-XL, IL-3-depleted, 3% FBS assay media, 24 hours, CellTiter-Glo, read-out: FL5.12 Bcl-xL, - IL3, EC 50.

SMILES strings stand for the structures. pEC50, pKi: −log10 of the molar value. Like-named read-outs stand apart in the source and are kept apart here. Where only a bound is given, the exact number is not on record here.

Chain of GST-Bcl-xL (Q07817 whole entry): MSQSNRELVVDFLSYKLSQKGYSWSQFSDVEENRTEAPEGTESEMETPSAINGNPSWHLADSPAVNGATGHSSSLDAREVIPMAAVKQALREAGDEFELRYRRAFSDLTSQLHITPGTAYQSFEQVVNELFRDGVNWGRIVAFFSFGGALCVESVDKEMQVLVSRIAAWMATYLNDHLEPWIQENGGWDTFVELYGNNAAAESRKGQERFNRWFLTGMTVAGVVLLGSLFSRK

For `Cc1c(-c2ccc(N3CCc4cccc(C(=O)Nc5nc6ccccc6s5)c4C3)nc2C(=O)O)cc(C#N)n1CC1(N(C)C)CCCCC1` [Example 176, 6-[8-(1,3-benzothiazol-2-ylcarbamoyl)-3,4-dihydroisoquinolin-2(1H)-yl]-3-(5-cyano-1-{[1-(dimethylamino)cyclohexyl]methyl}-2-methyl-1H-pyrrol-3-yl)pyridine-2-carboxylic acid], the pKi at GST-Bcl-xL is above 10.00. Besides, in experiment [1] (Mus musculus), the pEC50 was 8.00.
In the case of `N#Cc1nn(Cc2ccccc2)cc1-c1ccc(N2CCc3cccc(C(=O)Nc4nc5ccccc5s4)c3C2)nc1C(=O)O` [Example 27, 6-[8-(1,3-benzothiazol-2-ylcarbamoyl)-3,4-dihydroisoquinolin-2(1H)-yl]-3-(1-benzyl-3-cyano-1H-pyrazol-4-yl)pyridine-2-carboxylic acid], at GST-Bcl-xL, the pKi is 6.50. Further, the pEC50 in experiment [1] (Mus musculus) is below 6.00.
For the molecule `Cc1c(-c2ccc(N3CCc4cccc(C(=O)Nc5nc6ccccc6s5)c4C3)nc2C(=O)O)cc(C#N)n1Cc1ccccc1` [Example 129, 6-[8-(1,3-benzothiazol-2-ylcarbamoyl)-3,4-dihydroisoquinolin-2(1H)-yl]-3-(1-benzyl-5-cyano-2-methyl-1H-pyrrol-3-yl)pyridine-2-carboxylic acid], the pKi at GST-Bcl-xL was above 10.00. Moreover, the pEC50 in experiment [1] (Mus musculus) is 7.74.
In the case of `Cc1c(-c2ccc(N3CCc4cccc(C(=O)Nc5nc6ccccc6s5)c4C3)nc2C(=O)O)cnn1CC1CCCC1` [Example 63, 6-[8-(1,3-benzothiazol-2-ylcarbamoyl)-3,4-dihydroisoquinolin-2(1H)-yl]-3-[1-(cyclopentylmethyl)-5-methyl-1H-pyrazol-4-yl]pyridine-2-carboxylic acid], the negative-log Ki (pKi) at GST-Bcl-xL is 8.70. Besides, the pEC50 in experiment [1] (Mus musculus) was 7.57.
For `Cc1nn(Cc2ccccc2)c(C)c1-c1ccc(N2CCc3cccc(C(=O)Nc4nc5ccccc5s4)c3C2)nc1C(=O)O` [Example 12, 6-[8-(1,3-benzothiazol-2-ylcarbamoyl)-3,4-dihydroisoquinolin-2(1H)-yl]-3-(1-benzyl-3,5-dimethyl-1H-pyrazol-4-yl)pyridine-2-carboxylic acid], the negative-log Ki (pKi) at GST-Bcl-xL was 8.10. In experiment [1] (Mus musculus), the pEC50 was 7.29.
On to `Cc1cc(OC2CCCCC2)ccc1-c1ccc(N2CCc3cccc(C(=O)Nc4nc5ccccc5s4)c3C2)nc1C(=O)O` [Example 113, 6-[8-(1,3-benzothiazol-2-ylcarbamoyl)-3,4-dihydroisoquinolin-2(1H)-yl]-3-[4-(cyclohexyloxy)-2-methylphenyl]pyridine-2-carboxylic acid], for which the pKi on GST-Bcl-xL was 7.72. In addition, the pEC50 in experiment [1] (Mus musculus) is below 6.00.
As to `O=C(Nc1nc2ccccc2s1)c1cccc2c1CN(c1ccc(-c3cnn(Cc4cccc(N5CCCC5)n4)c3)c(C(=O)O)n1)CC2` [Example 22, 6-[8-(1,3-benzothiazol-2-ylcarbamoyl)-3,4-dihydroisoquinolin-2(1H)-yl]-3-(1-{[6-(pyrrolidin-1-yl)pyridin-2-yl]methyl}-1H-pyrazol-4-yl)pyridine-2-carboxylic acid], the negative-log Ki (pKi) on GST-Bcl-xL is 8.22. Further, in experiment [1] (Mus musculus), the pEC50 is 6.67.
Turning to `COc1cccc(Cn2cc(-c3ccc(N4CCc5cccc(C(=O)Nc6nc7ccccc7s6)c5C4)nc3C(=O)O)cn2)c1` [Example 14, 6-[8-(1,3-benzothiazol-2-ylcarbamoyl)-3,4-dihydroisoquinolin-2(1H)-yl]-3-[1-(3-methoxybenzyl)-1H-pyrazol-4-yl]pyridine-2-carboxylic acid], the negative logarithm of the Ki (pKi) at GST-Bcl-xL was 7.92. For the same molecule, the pEC50 in experiment [1] is below 6.00.
On to `O=C(Nc1nc2ccccc2s1)c1cccc2c1CN(c1ccc(-c3cnn(Cc4ccccc4OCc4ccncc4)c3)c(C(=O)O)n1)CC2` [Example 48, 6-[8-(1,3-benzothiazol-2-ylcarbamoyl)-3,4-dihydroisoquinolin-2(1H)-yl]-3-{1-[2-(pyridin-4-ylmethoxy)benzyl]-1H-pyrazol-4-yl}pyridine-2-carboxylic acid], for which the negative-log Ki (pKi) at GST-Bcl-xL is 8.15. Besides, the pEC50 in experiment [1] (Mus musculus) is below 6.00.
With `O=C(Nc1nc2ccccc2s1)c1cccc2c1CN(c1ccc(-c3cccc4c3cnn4Cc3ccccc3)c(C(=O)O)n1)CC2` [Example 187, 6-[8-(1,3-benzothiazol-2-ylcarbamoyl)-3,4-dihydroisoquinolin-2(1H)-yl]-3-(1-benzyl-1H-indazol-4-yl)pyridine-2-carboxylic acid], the pKi at GST-Bcl-xL is 9.40. The pEC50 in experiment [1] (Mus musculus) was 6.50.
For `O=C(Nc1nc2ccccc2s1)c1cccc2c1CN(c1ccc(-c3cnn(Cc4ccccc4)c3-c3ccccc3)c(C(=O)O)n1)CC2` [Example 65, 6-[8-(1,3-benzothiazol-2-ylcarbamoyl)-3,4-dihydroisoquinolin-2(1H)-yl]-3-(1-benzyl-5-phenyl-1H-pyrazol-4-yl)pyridine-2-carboxylic acid], in that order: 6.41 and below 6.00.
As to `Cc1c(-c2ccc(N3CCc4cccc(C(=O)Nc5nc6ccccc6s5)c4C3)nc2C(=O)O)cc(C#N)n1CC1(N2CCOCC2)CCCCC1` [Example 168, 6-[8-(1,3-benzothiazol-2-ylcarbamoyl)-3,4-dihydroisoquinolin-2(1H)-yl]-3-(5-cyano-2-methyl-1-{[1-(morpholin-4-yl)cyclohexyl]methyl}-1H-pyrrol-3-yl)pyridine-2-carboxylic acid], at GST-Bcl-xL, the negative logarithm of the Ki (pKi) is above 10.00. In addition, in experiment [1] (Mus musculus), the pEC50 was 7.85.
For `O=Cc1cccc(Cn2cc(-c3ccc(N4CCc5cccc(C(=O)Nc6nc7ccccc7s6)c5C4)nc3C(=O)O)cn2)c1` [Example 64, 6-[8-(1,3-benzothiazol-2-ylcarbamoyl)-3,4-dihydroisoquinolin-2(1H)-yl]-3-[1-(3-formylbenzyl)-1H-pyrazol-4-yl]pyridine-2-carboxylic acid], in that order: 7.21 and below 6.00.
On to `O=C(Nc1nc2ccccc2s1)c1cccc2c1CN(c1ccc(-c3cnn(C(CCN4CCOCC4)c4ccccc4)c3)c(C(=O)O)n1)CC2` (centres unmarked) [Example 77, 6-[8-(1,3-benzothiazol-2-ylcarbamoyl)-3,4-dihydroisoquinolin-2(1H)-yl]-3-{1-[3-(morpholin-4-yl)-1-phenylpropyl]-1H-pyrazol-4-yl}pyridine-2-carboxylic acid], for which the negative-log Ki (pKi) at GST-Bcl-xL is 8.00. Also, in experiment [1] (Mus musculus), the pEC50 was 6.37.
With `COC1(Cn2nnc(-c3ccc(N4CCc5cccc(C(=O)Nc6nc7ccccc7s6)c5C4)nc3C(=O)O)c2C)CCCC(C)(C)C1` (centres unmarked) [Example 166, 6-[8-(1,3-benzothiazol-2-ylcarbamoyl)-3,4-dihydroisoquinolin-2(1H)-yl]-3-{1-[(1-methoxy-3,3-dimethylcyclohexyl)methyl]-5-methyl-1H-1,2,3-triazol-4-yl}pyridine-2-carboxylic acid], on GST-Bcl-xL, the negative-log Ki (pKi) was above 10.00. The pEC50 in experiment [1] (Mus musculus) is 7.52.
Regarding `CCOC(=O)c1cc(-c2ccc(N3CCc4cccc(C(=O)Nc5nc6ccccc6s5)c4C3)nc2C(=O)O)c(C)n1Cc1ccccc1` [Example 123, 6-[8-(1,3-benzothiazol-2-ylcarbamoyl)-3,4-dihydroisoquinolin-2(1H)-yl]-3-[1-benzyl-5-(ethoxycarbonyl)-2-methyl-1H-pyrrol-3-yl]pyridine-2-carboxylic acid], the negative-log Ki (pKi) at GST-Bcl-xL was above 10.00. In addition, in experiment [1] (Mus musculus), the pEC50 was 7.80.
On to `O=C(Nc1nc2ccccc2s1)c1cccc2c1CN(c1ccc(-c3cnn(Cc4cc(F)cc(F)c4)c3)c(C(=O)O)n1)CC2` [Example 53, 6-[8-(1,3-benzothiazol-2-ylcarbamoyl)-3,4-dihydroisoquinolin-2(1H)-yl]-3-[1-(3,5-difluorobenzyl)-1H-pyrazol-4-yl]pyridine-2-carboxylic acid], for which, at GST-Bcl-xL, the negative-log Ki (pKi) is 7.85. For the same molecule, in experiment [1], the pEC50 is 6.41.
On to `N#Cc1c(OC2CCCCC2)cccc1-c1ccc(N2CCc3cccc(C(=O)Nc4nc5ccccc5s4)c3C2)nc1C(=O)O` [Example 116, 6-[8-(1,3-benzothiazol-2-ylcarbamoyl)-3,4-dihydroisoquinolin-2(1H)-yl]-3-[2-cyano-3-(cyclohexyloxy)phenyl]pyridine-2-carboxylic acid], for which the pKi at GST-Bcl-xL was above 10.00. Besides, the pEC50 in experiment [1] (Mus musculus) was 6.18.
As to `CC1(C)CCC(Cn2cc(-c3ccc(N4CCc5cccc(C(=O)Nc6nc7ccccc7s6)c5C4)nc3C(=O)O)cn2)=C(c2ccc(Cl)cc2)C1` [Example 83, 6-[8-(1,3-benzothiazol-2-ylcarbamoyl)-3,4-dihydroisoquinolin-2(1H)-yl]-3-(1-{[2-(4-chlorophenyl)-4,4-dimethylcyclohex-1-en-1-yl]methyl}-1H-pyrazol-4-yl)pyridine-2-carboxylic acid], the negative logarithm of the Ki (pKi) at GST-Bcl-xL is 9.30. The pEC50 in experiment [1] (Mus musculus) is below 6.00.
Consider `O=C(Nc1nc2ccccc2s1)c1cccc2c1CN(c1ccc(-c3cnn(CC4(C(F)(F)F)CCCCC4)c3)c(C(=O)O)n1)CC2` [Example 74, 6-[8-(1,3-benzothiazol-2-ylcarbamoyl)-3,4-dihydroisoquinolin-2(1H)-yl]-3-(1-{[1-(trifluoromethyl)cyclohexyl]methyl}-1H-pyrazol-4-yl)pyridine-2-carboxylic acid], for which, at GST-Bcl-xL, the negative logarithm of the Ki (pKi) is 8.22. For the same molecule, in experiment [1] (Mus musculus), the pEC50 is 6.47.
Consider `O=C(Nc1nc2ccccc2s1)c1cccc2c1CN(c1ccc(-c3cn(Cc4ccccc4)c4cnccc34)c(C(=O)O)n1)CC2` [Example 188, 6-[8-(1,3-benzothiazol-2-ylcarbamoyl)-3,4-dihydroisoquinolin-2(1H)-yl]-3-(1-benzyl-1H-pyrrolo[2,3-c]pyridin-3-yl)pyridine-2-carboxylic acid], for which, at GST-Bcl-xL, the pKi was 9.30. The pEC50 in experiment [1] (Mus musculus) was 6.26.
Regarding `CN(C)CCCNc1ccc(Cn2cc(-c3ccc(N4CCc5cccc(C(=O)Nc6nc7ccccc7s6)c5C4)nc3C(=O)O)cn2)cc1[N+](=O)[O-]` [Example 44, 6-[8-(1,3-benzothiazol-2-ylcarbamoyl)-3,4-dihydroisoquinolin-2(1H)-yl]-3-[1-(4-{[3-(dimethylamino)propyl]amino}-3-nitrobenzyl)-1H-pyrazol-4-yl]pyridine-2-carboxylic acid], the negative-log Ki (pKi) at GST-Bcl-xL is 7.77. In addition, the pEC50 in experiment [1] (Mus musculus) is below 6.00.

These data come from patent EP2768830B1, “APOPTOSIS-INDUCING AGENTS FOR THE TREATMENT OF CANCER AND IMMUNE AND AUTOIMMUNE DISEASES” (AbbVie Inc., priority 2011, dated 2013).
